Measurements as given in ChEMBL document CHEMBL3638480, “Inhibitors” (2013).

Target: Glutaminyl-peptide cyclotransferase (Homo sapiens, UniProt Q16769)
Experiment: Spectrophotometic Assay: Spectrophotometic Assay: This novel assay was used to determine the kinetic parameters for most of the QC substrates. QC activity was analyzed spectrophotometrically using a continuous method, that was derived by adapting a previous discontinuous assay (Bateman, R.C.J. 1989 J Neurosci Methods 30, 23-28).

Sequence of Glutaminyl-peptide cyclotransferase (Q16769 whole entry): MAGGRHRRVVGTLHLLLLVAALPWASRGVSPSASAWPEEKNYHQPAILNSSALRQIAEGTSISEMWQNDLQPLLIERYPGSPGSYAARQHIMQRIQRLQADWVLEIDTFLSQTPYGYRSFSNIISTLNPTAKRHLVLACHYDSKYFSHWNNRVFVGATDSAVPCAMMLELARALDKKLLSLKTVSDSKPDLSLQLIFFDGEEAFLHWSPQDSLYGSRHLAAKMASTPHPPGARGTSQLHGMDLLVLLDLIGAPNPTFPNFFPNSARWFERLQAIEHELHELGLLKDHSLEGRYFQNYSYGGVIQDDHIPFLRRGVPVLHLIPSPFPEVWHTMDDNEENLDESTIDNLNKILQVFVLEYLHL

Row | Compound | IC50 [µM]
1 | O=C1OC[C@H](c2ccc(N(C3CC3)C3CC3)cc2)N1c1ccc2[nH]cnc2c1 | < 10
2 | O=C1NCC(c2cc(C(F)(F)F)ccc2F)N1c1ccc2[nH]cnc2c1 (stereo not drawn) | < 10
3 | O=C1OC[C@H](c2cccc(N3CCN(c4ccccc4)CC3)c2)N1c1ccc2nc[nH]c2c1 | < 10
4 | O=C1NCC(c2ccc(-c3ccc(Cl)c(Cl)c3)cc2)N1c1ccc2nc[nH]c2c1 (stereo not drawn) | < 10
5 | O=C1NCC(c2ccc(N3CCCC3)cc2)N1c1ccn2ccnc2c1 (stereo not drawn) | < 10
6 | O=C1OC[C@H](C2CCC(c3ccccc3)CC2)N1c1ccc2[nH]cnc2c1 (stereo partly drawn) | < 10
7 | CCCOc1ccc([C@H]2COC(=O)N2c2cc(C)c3[nH]cnc3c2)cc1 | < 10
8 | O=C1NCC(c2cccc(Cl)c2)N1c1ccc2nc[nH]c2c1 (stereo not drawn) | < 10
9 | COc1cc(F)c(C2CNC(=O)N2c2ccc3nc[nH]c3c2)c(F)c1 (stereo not drawn) | < 10
10 | O=C1NCC(c2ccc(OC3CCCCC3)cc2)N1c1ccc2[nH]cnc2c1 (stereo not drawn) | < 10
11 | O=C1NCC(c2ccc3c(c2)OCCO3)N1c1ccc2[nH]cnc2c1 (stereo not drawn) | < 10
12 | O=C1NCC(c2ccc(C3CCCCC3)cc2)N1c1ccc2[nH]cnc2c1 (stereo not drawn) | < 10
13 | CCOc1ccc(C2CNC(=O)N2c2ccc3[nH]cnc3c2)cc1 (stereo not drawn) | < 10
14 | O=C1OCC(c2ccc(OC3CCCCC3)cc2)N1c1ccc2[nH]cnc2c1 (stereo not drawn) | < 10
15 | COCCCc1ccc(C2CNC(=O)N2c2ccc3[nH]cnc3c2)cc1 (stereo not drawn) | < 10
16 | COc1cc(C2CNC(=O)N2c2ccn3ccnc3c2)cc2c1OCO2 (stereo not drawn) | < 10
17 | O=C1NCC(c2ccc(C(F)(F)F)c(F)c2)N1c1ccc2nc[nH]c2c1 (stereo not drawn) | < 10
18 | CCCCOc1ccc(C2CNC(=O)N2c2ccc3nc[nH]c3c2)cc1 (stereo not drawn) | < 10
19 | O=C1NCC(c2ccc(-c3ccccc3)c(F)c2)N1c1ccc2[nH]cnc2c1 (stereo not drawn) | < 10
20 | O=C1NCC(c2cc(F)cc(C(F)(F)F)c2)N1c1ccc2[nH]cnc2c1 (stereo not drawn) | < 10
21 | O=C1OCC(c2ccc(C3CCOCC3)cc2)N1c1ccc2[nH]cnc2c1 (stereo not drawn) | < 10
22 | O=C1OC[C@H](c2ccc(N3CCCCC3)cc2)N1c1ccc2[nH]cnc2c1 | < 10

Row | Compound | IC50 [µM]
23 | O=C1NCC(c2ccc(OCCCN3CCOCC3)cc2)N1c1ccc2nc[nH]c2c1 (stereo not drawn) | < 10
24 | O=C1NCC(c2cccc(-c3ccccc3)c2)N1c1ccc2[nH]cnc2c1 (stereo not drawn) | < 10
25 | O=C1NCC(c2cccc(Cl)c2Cl)N1c1ccc2nc[nH]c2c1 (stereo not drawn) | < 10
26 | O=C1OCC(c2ccc(C3CCC(O)CC3)cc2)N1c1ccc2[nH]cnc2c1 (stereo not drawn) | < 10
27 | CN1CCN(c2ccc([C@H]3COC(=O)N3c3ccc4nc[nH]c4c3)cc2)CC1 | < 10
28 | O=C1NCC(c2ccc(O)cc2)N1c1ccc2[nH]cnc2c1 (stereo not drawn) | < 10
29 | COc1ccc(C2CNC(=O)N2c2ccc3nc[nH]c3c2)cc1F (stereo not drawn) | < 10
30 | CCCOc1ccc([C@H]2OC(=O)N(c3ccc4nc[nH]c4c3)[C@H]2c2ccc(OCCC)cc2)cc1 (single isomer, unassigned) | < 10
31 | O=C1OC[C@H](c2ccc3c(c2)OCO3)N1c1ccc2nc[nH]c2c1 | < 10
32 | CCCOc1ccc(C2CN(CCc3ccccc3)C(=O)N2c2ccc3[nH]cnc3c2)cc1 (stereo not drawn) | < 10
33 | O=C1OCC(c2ccc(N3CCCC3)cc2)N1c1ccc2[nH]cnc2c1 (stereo not drawn) | < 10
34 | O=C1OC[C@H](CCc2ccccc2)N1c1ccc2[nH]cnc2c1 | < 10
35 | O=C1NCC(c2ccc(C3CCCCC3)cc2)N1c1ccn2ccnc2c1 (stereo not drawn) | < 10
36 | O=C1OC[C@H](c2ccc(OCCN3CCNCC3)cc2)N1c1ccc2[nH]cnc2c1 | < 10
37 | O=C1NCC(c2ccccc2OCCN2CCOCC2)N1c1ccc2nc[nH]c2c1 (stereo not drawn) | < 10
38 | O=C1NCC(c2ccc(OC(F)(F)C(F)F)cc2)N1c1ccc2[nH]cnc2c1 (stereo not drawn) | < 10
39 | O=C1NCC(c2ccc(-c3ccccc3)c(F)c2)N1c1ccn2ccnc2c1 (stereo not drawn) | < 10
40 | CCCOc1ccc(C[C@H]2COC(=O)N2c2ccc3[nH]cnc3c2)cc1 | < 10
41 | CN1CCC(c2ccc(C3COC(=O)N3c3ccc4[nH]cnc4c3)cc2)CC1 (stereo not drawn) | < 10
42 | O=C1NCC(c2ccc(N3CCCCC3)cc2)N1c1ccn2ccnc2c1 (stereo not drawn) | < 10
43 | COc1cc(C2CNC(=O)N2c2ccc3[nH]cnc3c2)ccc1F (stereo not drawn) | < 10
44 | O=C1NCC(c2cccc(F)c2)N1c1ccc2nc[nH]c2c1 (stereo not drawn) | < 10

Row | Compound | IC50 [µM]
45 | O=C1OC[C@H](c2ccc(-c3cccc(Cl)c3)cc2)N1c1ccc2nc[nH]c2c1 | < 10
46 | O=C1OC[C@H](c2ccc(Cl)cc2)N1c1ccc2nc[nH]c2c1 | < 10
47 | CC(c1ccccc1)C1COC(=O)N1c1ccc2[nH]cnc2c1 (stereo not drawn) | < 10
48 | O=C1NCC(c2c(F)cccc2F)N1c1ccc2[nH]cnc2c1 (stereo not drawn) | < 10
49 | O=C1OC[C@H](c2ccccc2)N1c1cc(F)c2[nH]cnc2c1 | < 10
50 | CN(C)CCOc1ccc([C@H]2CNC(=O)N2c2ccc3[nH]cnc3c2)cc1 | < 10
51 | COc1ccc([C@H]2[C@@H](C)NC(=O)N2c2ccc3nc[nH]c3c2)cc1 | < 10
52 | O=C1CCC(c2ccc(C3CNC(=O)N3c3ccc4[nH]cnc4c3)cc2)CC1 (stereo not drawn) | < 10
53 | O=C1CCC(c2ccc(C3COC(=O)N3c3ccc4[nH]cnc4c3)cc2)CC1 (stereo not drawn) | < 10
54 | Cc1nc2ccc(N3C(=O)OC[C@@H]3c3ccccc3)cc2[nH]1 | < 10
55 | O=C1NCC(c2cccc(-c3cccc(Cl)c3)c2)N1c1ccc2[nH]cnc2c1 (stereo not drawn) | < 10
56 | CCCOc1ccc(C2CN(Cc3ccc4ccccc4c3)C(=O)N2c2ccc3[nH]cnc3c2)cc1 (stereo not drawn) | < 10
57 | O=C1NCC(c2cccc(N3CCCCC3)c2)N1c1ccn2ccnc2c1 (stereo not drawn) | < 10
58 | O=C1OC[C@H](c2ccc(N3CCOCC3)cc2)N1c1ccn2ccnc2c1 | < 10
59 | C[C@@H]1OC(=O)N(c2ccc3nc[nH]c3c2)[C@H]1c1ccccc1 | < 10
60 | O=C1NCC(c2ccccc2F)N1c1ccc2[nH]cnc2c1 (stereo not drawn) | < 10
61 | O=C1NCC(c2c(F)cccc2F)N1c1ccn2ccnc2c1 (stereo not drawn) | < 10
62 | CCN(CC)c1ccc([C@H]2CNC(=O)N2c2ccc3[nH]cnc3c2)cc1 | < 10
63 | O=C1NCC(c2ccc(C3CCOCC3)cc2)N1c1ccc2[nH]cnc2c1 (stereo not drawn) | < 10
64 | O=C1NCC(c2ccc(F)cc2)N1c1ccc2[nH]cnc2c1 (stereo not drawn) | < 10
65 | O=C1OC[C@H](c2cccc(Cl)c2)N1c1ccc2nc[nH]c2c1 | < 10
66 | COCCOc1ccc(C2CNC(=O)N2c2ccc3[nH]cnc3c2)cc1 (stereo not drawn) | < 10

Row | Compound | IC50 [µM]
67 | O=C1NCC(c2ccc(Cl)cc2)N1c1ccc2[nH]cnc2c1 (stereo not drawn) | < 10
68 | O=C1OC[C@H](C2CCCCC2)N1c1ccc2[nH]cnc2c1 | < 10
69 | COc1ccccc1C1CNC(=O)N1c1ccc2[nH]cnc2c1 (stereo not drawn) | < 10
70 | O=C1CCC(c2ccc3c(c2)OCCO3)N1c1ccc2[nH]cnc2c1 (stereo not drawn) | < 10
71 | CCN(CC)c1ccc([C@H]2COC(=O)N2c2ccc3[nH]cnc3c2)cc1 | < 10
72 | COc1cc(C2CNC(=O)N2c2ccc3[nH]cnc3c2)cc2c1OCO2 (stereo not drawn) | < 10
73 | O=C1OC[C@H](c2ccc(N3CCOCC3)cc2)N1c1ccc2[nH]cnc2c1 | < 10
74 | CC1(C)OC(=O)N(c2ccc3nc[nH]c3c2)[C@H]1c1ccccc1 | < 10
75 | CC(C)Oc1ccc(C[C@H]2COC(=O)N2c2ccc3[nH]cnc3c2)cc1 | < 10
76 | O=C1OC[C@H](c2cccc(N3CCOCC3)c2)N1c1ccc2[nH]cnc2c1 | < 10
77 | COc1ccc(C2CN(N)C(=O)N2c2ccc3[nH]cnc3c2)cc1 (stereo not drawn) | < 10
78 | O=C1NCC(c2ccc(OCCN3CCOCC3)cc2)N1c1ccc2nc[nH]c2c1 (stereo not drawn) | < 10
79 | CCCOc1ccc(C2CNC(=O)N2c2ccc3[nH]cnc3c2)c(F)c1 (stereo not drawn) | < 10
80 | O=C1NCC(c2ccc(N3CCOCC3)c(Cl)c2)N1c1ccc2nc[nH]c2c1 (stereo not drawn) | < 10
81 | O=C1NCC(c2ccccc2Cl)N1c1ccc2nc[nH]c2c1 (stereo not drawn) | < 10
82 | O=C1NCC(c2c(Cl)cccc2Cl)N1c1ccc2nc[nH]c2c1 (stereo not drawn) | < 10
83 | COCCN(CCOC)c1ccc([C@H]2COC(=O)N2c2ccc3[nH]cnc3c2)cc1 | < 10
84 | O=C1NCC(c2ccc(OCCN3CCOCC3)cc2)N1c1ccn2ccnc2c1 (stereo not drawn) | < 10
85 | CCCOc1ccc(C2CCC(=O)N2c2ccc3[nH]cnc3c2)cc1 (stereo not drawn) | < 10
86 | O=C1OCC(c2ccc(C3CCC(N4CCOCC4)CC3)cc2)N1c1ccc2[nH]cnc2c1 (stereo not drawn) | < 10
87 | O=C1OC[C@H](C2CCN(c3ccccc3)CC2)N1c1ccc2[nH]cnc2c1 | < 10
88 | COC1CCC(c2ccc(C3COC(=O)N3c3ccc4[nH]cnc4c3)cc2)CC1 (stereo not drawn) | < 10

Row | Compound | IC50 [µM]
89 | O=C1NCC(c2ccc(-c3cccc(Cl)c3)cc2)N1c1ccc2[nH]cnc2c1 (stereo not drawn) | < 10
90 | COCCCc1ccc([C@H]2COC(=O)N2c2ccc3[nH]cnc3c2)cc1 | < 10
91 | O=C1NCC(c2ccc(N3CCOCC3)cc2)N1c1ccc2[nH]cnc2c1 (stereo not drawn) | < 10
92 | O=C1OC[C@H](c2cccc(F)c2F)N1c1ccc2nc[nH]c2c1 | < 10
93 | CCCOc1ccc(C2CNC(=O)N2c2ccc3[nH]cnc3c2)cc1F (stereo not drawn) | < 10
94 | O=C1OC[C@H](c2cccc(-c3cccc(Cl)c3)c2)N1c1ccc2nc[nH]c2c1 | < 10
95 | O=C1c2ccccc2C(c2ccc(Cl)cc2)N1c1ccc2[nH]cnc2c1 (stereo not drawn) | < 10
96 | COCCOc1ccc([C@H]2COC(=O)N2c2ccc3[nH]cnc3c2)cc1 | < 10
97 | O=C1NCC(C2CCN(c3ccccc3)CC2)N1c1ccc2nc[nH]c2c1 (stereo not drawn) | < 10
98 | COc1ccc(C2CCC(=O)N2c2ccc3[nH]cnc3c2)cc1 (stereo not drawn) | < 10
99 | O=C1NCC(c2ccc(Cl)c(Cl)c2)N1c1ccc2nc[nH]c2c1 (stereo not drawn) | < 10
100 | O=C1OC[C@H](c2ccc(-c3ccccc3)cc2)N1c1ccc2[nH]cnc2c1 | < 10
101 | O=C1OC[C@H](c2ccc(OCCN3CCOCC3)cc2)N1c1ccc2[nH]cnc2c1 | < 10
102 | O=C1OC[C@H](c2cccc(N3CCCCC3)c2)N1c1ccc2[nH]cnc2c1 | < 10
103 | CN1CCC(c2ccc([C@H]3CNC(=O)N3c3ccc4[nH]cnc4c3)cc2)CC1 | < 10
104 | O=C1OC[C@H](c2ccc3c(c2)OCCO3)N1c1ccc2nc[nH]c2c1 | < 10
105 | COc1cc(F)c(C2COC(=O)N2c2ccc3[nH]cnc3c2)c(F)c1 (stereo not drawn) | < 10
106 | COc1cccc(C2CNC(=O)N2c2ccc3nc[nH]c3c2)c1 (stereo not drawn) | < 10
107 | O=C1NCC(c2ccc(C3CCC(N4CCOCC4)CC3)cc2)N1c1ccc2[nH]cnc2c1 (stereo not drawn) | < 10
108 | CC(C)Oc1ccc(C2CNC(=O)N2c2ccc3nc[nH]c3c2)cc1 (stereo not drawn) | < 10
